Where “and” joins values, the source holds several entries; their conditions need not be identical. Identical values can stand only once. Entries after “also recorded” stand apart in the source; their conditions may differ. Like-named read-outs stand apart in the source and are kept apart here.
Key:
[1] = therapeutic studies (not specified further); format: in vivo
D54 Glioblastoma = test: antitumor evaluation vs. intracerebrally implanted D54 glioblastoma xenograft; format: in vivo, mice; conditions: D54 IC, 200 mg/kg IP q1d x 5d
Method: (§1) U251 and D54 tumors, 10^6 cultured cells in 0.03 ml volume were injected via a 25-gauge stainless steel 0.25 inch needle into the right cerebrum with angling toward the center of the brain. […] Doses varied to include an ca LD10 as described above for the MX-1 tumor. BCNU was used clinically to treated advanced gliomas and will be used as a positive control at optimal doses of 17, 10 and 6 mg/kg on a qd 1-5 schedule, since it is also the clinical standard for brain tumors and is very active against this tumor model. DM-PEN at 60, 90 and 135 mg/kg on the same schedule was included as a comparative control. Antitumor activity was assessed on the basis of survival, with the medial day of death of the controls (10 mice) typically being ca. 30-35 days. The in vivo tumor inhibition results are recorded in Table 3.

KG breast CA = test: in vitro cytotoxic activity against KG breast cancer explants; format: cell-based, human
Source text: (§2) In one embodiment, preferred therapeutic agents are identified herein by assessing their in vitro cytotoxic activity against cultured model cancer cell lines. […] Suitable cell lines against which the disclosed compounds may be assessed are well known to those of skill in the art and include, by way of example, KG breast CA, LM breast CA and 9L rat glioma. […] The KG breast cancer explants were obtained from surgical biopsies of chest wall metastases from breast cancer. The patient had failed on extensive standard and experimental chemo/hormone and radiation therapy protocols. Minced biopsy specimens were grown in RPMI plus 10% FBS with antibiotics at 37° C. and 5% CO2 atmosphere. DM-CHOC-PEN was tested at 0.5-5 μg/mL concentrations in medium and incubated for 24 hrs.

U251 GBM = format: in vivo; conditions: for ILS (percentage increased length of survival in days vs. control): U251 GBM in cerebrum, IP qd 1-5, dose not given; for LTC (long-term cure, >30-35 days): U251 GBM, cured/animals
Method: as §1

mice [2] = test: acute IV toxicity in the mouse (single dose); format: in vivo; conditions: for Observations (mortality): 5 M 5 F
Method: This example describes the toxicity of DM-CHOC-PEN to mice as administered via intravenous injections and oral gavage. For the intravenous study, the dose range-finding phase consisted of five treatment groups (one male mouse/group) that received the test article as a single dose at respective dose levels of 50 (dose volume of 5 mL/kg), 100 (dose volume of 10 mL/kg), 150 (dose volume of 15 mL/kg), 250 (dose volume of 25 mL/kg), and 500 mg/kg (intended total dose volume of 50 mL/kg). The 500 mg/kg dose was intended to be a split dose that was to be administered in equal fractions (25 mL/kg/dose) approximately four hours apart (mortality precluded administration of the second portion of the dose). An additional group (one male mouse) served as the control and received the vehicle, soybean oil, at a dose volume of 25 mL/kg using the same route of administration as the treated groups. On Day 4, following the three-day observation period, all surviving dose range-finding animals were euthanized and discarded.
The main study phase consisted of five treatment groups (five mice/sex/group) that received a single dose of the test article at respective dose levels of 50, 100, 200, 400, and 600 mg/kg. An additional group (five mice/sex) served as the control and received the vehicle, 0.3% Klucel+1.92% Tween® 80, using the same dosing regimen as the treated groups. All doses were at a constant volume of 25 mL/kg.
Observations for mortality, morbidity, and the availability of food and water were conducted twice daily for all animals. Observations for clinical signs were conducted daily during the study (approximately one and four hours post-dose on Day 1 and then once daily). Body weights were measured on all animals after receipt, prior to randomization and on Day 1. In addition, body weights were measured for all surviving main study phase animals on Days 7 and 14. Macroscopic evaluations were performed on each main study phase animal at necropsy (Day 15).

9L rat glioma = test: in vitro cytotoxic activity against 9L rat glioma; format: cell-based
Source text: as §2

mice [3] = test: acute IV toxicity in the mouse (single dose); format: in vivo; conditions: Mouse CD2F1, 12 F, 21 days
LM breast CA = test: in vitro cytotoxic activity against LM breast CA; format: cell-based
Source text: as §2

MX-1 Breast Cancer = test: antitumor evaluation vs. MX-1 breast cancer xenograft
mice [4] = test: sub-acute oral mouse toxicity study; conditions: daily for five days, 800-2000 mg/kg
Method: Sub-acute oral mouse toxicity study was conducted at MPI Research, Mattawan, Mich., under GLP conditions in male/female mice.

Beagle dogs = test: acute IV toxicity in the dog; format: in vivo; conditions: for Observations (mortality): 2 M 2 F
Method: This example describes the acute toxicity of DM-CHOC-PEN in dogs. An acute study was performed in adult Beagle dogs, which consisted of: DM-CHOC-PEN administered once IV. Sixteen (16) adult beagle dogs (8 male and 8 female) divided into three groups received a single intravenous injection of DM-CHOC-PEN. The DM-CHOC-PEN was administered in 0.3% Klucel+1.92% Tween® 80, The results are recorded in Table 6.

[5] = system: patients with advanced solid tumors; conditions: one hour infusion for 5 consecutive days; dysmetria, ataxia, vertigo; cited from earlier work

Question: Which results are given for “4-Demethyl cholesteryloxycarbonylpenclomedine [DM-CHOC-PEN]”?
Answer: dosing range in which responses were seen [1]: 150 to 225 mg/kg; % Increase in Life Span (% ILS) (D54 Glioblastoma): +3%; % Long Term Survivors (% LTS) (D54 Glioblastoma): 20 (1/5 CR) %; in vitro IC50 (KG breast CA; KG breast CA): 0.7±0.4 micrograms/mL; IC50 (KG breast CA; KG breast cancer explants, 0.5-5 μg/mL in medium, incubated 24 hrs): 1.1 ± 0.5 µg/mL; neurotoxicity (U251 GBM; DM-CHOC-PEN treatment regimen in the animal studies): did not demonstrate neurotoxicity; long-term survivors (U251 GBM; Table 3, U251): 20%; ILS (percentage increased length of survival in days vs. control) (U251 GBM; Table 3): 29%; LTC (long-term cure, >30-35 days) (U251 GBM; Table 3): ⅕; increase in survival compared to DM-PEN (U251 GBM; U251, IP daily x 5 days): two-fold; tumor burden reduction (U251 GBM; U251, IP daily x 5 days): log107; % Increase in Life Span (% ILS) (U251 GBM; U251 IC, 135 mg/kg IP q1d x 5d): +29%; % Long Term Survivors (% LTS) (U251 GBM; U251 IC, 135 mg/kg IP q1d x 5d, LTS >90 days, 135 mg/kg): 20% and 20 (1/5 CR) %; weight loss (U251 GBM; U251 xenograft mice, IP daily x 5): no weight loss; macroscopic findings at necropsy (mice [2]; Day 15): No macroscopic findings; LD50 (mice [2]; Mouse, IV single dose): 390 mg/kg; time until the last death (mice [2]; Mouse, IV, 14-day study): 2 to 14 days; Comparable Human IV Dosage (mice [2]; estimated from mouse LD10): 39 mg/m^2; body weight effects (mice [2]; mice surviving the 14-day observation period vs controls): No definitively clear treatment-related body effects; intravenous LD10 (mice [2]; mice, combined sexes, single dose): 136 mg/kg; intravenous LD50 (mice [2]; mice, combined sexes, 95% confidence limits 298 to 502 mg/kg): 385 mg/kg; Observations (mortality) (mice [2]; single IV dose 50 mg/kg, 50 mg/kg): 1 of 10 and 0 M and 1 F died; Observations (mortality) (mice [2]; single IV dose 100 mg/kg, 100 mg/kg): No animals died; also recorded: No deaths; Observations (mortality) (mice [2]; single IV dose 200 mg/kg, 200 mg/kg): 1 of 10 and 0 M and 1 F died; Observations (mortality) (mice [2]; single IV dose 400 mg/kg, 400 mg/kg): 7 of 10 and 4 M and 3 F died; Observations (mortality) (mice [2]; single IV dose 600 mg/kg, 600 mg/kg): 8 of 10 and 5 M and 3 F died; clinical signs (mice [2]; single IV dose 50-600 mg/kg, both sexes, generally dose-dependent): decreased activity, rapid/difficult/slow/shallow breathing, limbs splayed, tremors and skin cold to touch; deaths in dose range-finding phase (mice [2]; single IV dose in soybean oil, at 0, 100, 250 and 500 mg/kg, one male mouse/group): immediate deaths; in vitro IC50 (9L rat glioma): 1.1±0.4 micrograms/mL; LD50 (mice [3]): 390 mg/kg; in vitro IC50 (LM breast CA): 1.0±0.5 micrograms/mL; % Increase in Life Span (% ILS) (MX-1 Breast Cancer; MX-1 IC, 25 mg/kg IP q1d x 5d): +6%; % Increase in Life Span (% ILS) (MX-1 Breast Cancer; MX-1 IC, 50 mg/kg IP q1d x 5d): +20%; % Long Term Survivors (% LTS) (MX-1 Breast Cancer; MX-1 IC, printed on the 25 mg/kg line (25 and 50 mg/kg tested), IP q1d x 5d): 17% and 17 (1/6 CR) %; weight loss (MX-1 Breast Cancer; MX-1 tumor mice, daily dosing for 5 days): no weight loss; mortality (mice [4]): Only one death occurred at 800 mg/kg; seizures (mice [4]): No seizures noted; clinical observations (mice [4]; similar in controls): some degree of lethargy and unkept appearance; Acute IV (LD10) (Beagle dogs; Dog): >30 mg/kg; LD50 (Beagle dogs; Dog, Beagle, IV single dose, 10 days): >30 mg/kg; Observations (mortality) (Beagle dogs; IV once 10 mg/kg): No deaths; Observations (mortality) (Beagle dogs; IV once 20 mg/kg): No deaths; Observations (mortality) (Beagle dogs; IV once 30 mg/kg): No deaths; Comparable Human IV Dosage (Beagle dogs; estimated from dog LD10): >600 mg/m^2; effects directly related to the test article (Beagle dogs; single IV injection 10, 20 and 30 mg/kg): no effects that were directly related to the test article

Question: With `O=NN(CCCl)C(=O)NCCCl` [BCNU, reference compound] as the compound, how does the “% ILS” value (U251 GBM; U251, BCNU positive control) read?
Answer: +92%

Question: With `COc1[nH]c(C(Cl)(Cl)Cl)c(Cl)c(=O)c1Cl` [DM-PEN, 4-demethylpenclomedine, reference compound] as the compound, how does the activity in vitro (KG breast CA; requires prior activation per the liver) read?
Answer: not active in vitro

Question: And the “ILS (percentage increased length of survival in days vs. control)” value (U251 GBM; Table 3)?
Answer: 13%

Question: What about the “LTC (long-term cure, >30-35 days)” value (U251 GBM; Table 3) of the same compound?
Answer: 0

Question: What about the complete responders (U251 GBM; Table 4 tumors, daily dosing for 5 days) of the same compound?
Answer: did not produce any complete responders

Question: And the “% ILS” value (U251 GBM; U251 IC, 90 mg/kg IP q1d x 5d)?
Answer: 17%

Question: What about the “% LTS (given as survivors/animals)” value (U251 GBM; U251 IC, 90 mg/kg IP q1d x 5d) of the same compound?
Answer: 0/5

Question: And the “% ILS” value (MX-1 Breast Cancer; MX-1 IC, 60 mg/kg IP q1d x 5d)?
Answer: 12%

Question: And the “% LTS (given as survivors/animals)” value (MX-1 Breast Cancer; MX-1 IC, 60 mg/kg IP q1d x 5d)?
Answer: 0/5

Question: With `COc1nc(C(Cl)(Cl)Cl)c(Cl)c(OC)c1Cl` [PEN, 3,5-dichloro-4,6-dimethoxy-2-(trichloromethyl)-pyridine] as the compound, how does the “neurotoxicity in clinical trials” value [5] read?
Answer: dose-limiting neurotoxicity was observed

— patent US9422241B2, “Demethylpenclomedine analogs and their use as anti-cancer agents” (priority 2005, dated 2016)
